Assay results: patent publication US20080017207A1, “Reduction of the Deleterious Effects of Tobacco Smoking by the Induction of Phase 2 Enzymes by Nerf2” (SAVIPU PHARMACEUTICALS, priority 2006, published 2008)

Key:
[1] = test system: benzo[a]pyrene-induced transformation of RTE cells; assay: rat tracheal epithelial (RTE) cell focus inhibition assay; assay type: cell-based
Protocol: (§1) The rat tracheal epithelial (RTE) cell focus inhibition assay was used to identify potential chemopreventive activity of tanshinone IIA. Tanshinone IIA was evaluated for its ability to inhibit benzo[a]pyrene-induced transformation of RTE cells. Tracheal epithelial cells were isolated from 8-12 week-old male Fisher 344 rats and plated on collagen coated dishes. Initially, a nontoxic concentration of tanshinone IIA was determined by treating RTE cells with a range of 1.5 nM to 3000 nM of tanshinone IIA. […] About 10% cells survived at a concentration of 1500 nM. Freshly isolated RTE cells were exposed to benzo[a]pyrene alone or in combination with tanshinone IIA. Benzo[a]pyrene was washed out after an exposure of 24 h. The maximal non-toxic concentration and four half log concentrations of tanshinone IIA (300 nM to 3 nM) were used for the chemopreventive assay. After 30 days in culture, transformed foci were scored and inhibition was quantitated. […] A positive control of retinoic acid inhibited the transformation frequency by 50% at 1 nM.

RTE cells = assay: toxicity of tanshinone IIA to RTE cells; assay type: cell-based, rat
Protocol: as §1

NF-κB = settings: as disclosed in U.S. Application Ser. No. 60/779,142; cited from earlier work
[2] = test system: benzo[a]pyrene-induced gastric neoplasia; settings: cited from earlier work

**Q.** For Cc1coc2c1C(=O)C(=O)c1c-2ccc2c1CCCC2(C)C [Tanshinone IIA], which “prevention of benzo[a]pyrene-induced transformation of rat tracheal epithelial cells” value ([1]; 3 nM) is on record?
**A.** totally prevented

**Q.** What about the “inhibition of transformation frequency” value ([1]; each dose level, 300 nM to 3 nM, foci scored after 30 days in culture) of the same compound?
**A.** complete inhibition

**Q.** And the cells survived (RTE cells; at 1500 nM)?
**A.** About 10%

**Q.** And the nontoxic concentration (RTE cells; range tested 1.5 nM to 3000 nM)?
**A.** ≤ 150 nM

**Q.** And the “toxicity to the cells” value (RTE cells; very low concentrations (3 nM))?
**A.** nontoxic

**Q.** What about the “inhibition of NF-κB” value (NF-κB) of the same compound?
**A.** demonstrated inhibition

**Q.** What does the source list for Cc1c(-c2cnccn2)ssc1=S [Oltipraz, 4-methyl-5-[2-pyrazinyl]-1,2-dithiole-3-thione]?
**A.** tumor burden ([2]; nrf2-deficient mice): no effect; multiplicity of gastric neoplasia ([2]; wild-type mice): significantly reduced

**Q.** With CC1=C(/C=C/C(C)=C/C=C/C(C)=C/C(=O)O)C(C)(C)CCC1 [retinoic acid, reference compound] as the compound, how does the inhibition at 0.001 µM ([1]; Rattus norvegicus, at 1 nM, positive control, read-out: inhibition of transformation frequency) read?
**A.** 50%
